ChEMBL document CHEMBL1201862, “PubChem BioAssay data set” (2004)
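96-well plates; 48 h exposure; 5 concentrations. Endpoints by linear interpolation between flanking doses. Not reached: highest tested concentration assigned. At the GI50, growth is halved.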 Calls of active or inactive are those of the source. Cut-off read from the data, not from the text of the source: active = GI50 up to about 1.1 µM and inactive = higher. Where a SMILES comes first, the peptide text is derived from it. The star is where a group is joined. Fmoc = O=C(OCC1c2ccccc2-c2ccccc21)*; OtBu = CC(C)(C)O*

What was measured:
Assay in all cases: NCI-60 cell line screen, 48 h
OVCAR-3 = test system: OVCAR-3
LOX IMVI = test system: LOX IMVI
UACC-257 = test system: UACC-257
OVCAR-5 = test system: OVCAR-5
RXF 393 = test system: RXF 393
CAKI-1 = test system: CAKI-1
UACC-62 = test system: UACC-62
HCC 2998 = test system: HCC 2998
A498 = test system: A498
LXFL 529 = test system: LXFL 529
CCRF-CEM = test system: CCRF-CEM
HT-29 = test system: HT-29
SK-OV-3 = test system: SK-OV-3
SK-MEL-5 = test system: SK-MEL-5
Malme-3M = test system: Malme-3M
COLO 205 = test system: COLO 205
SNB-75 = test system: SNB-75
SR = test system: SR
T47D = test system: T47D
MDA-MB-231 = test system: MDA-MB-231

Row | Structure (SMILES) | GI50 (OVCAR-3) | GI50 (LOX IMVI) | GI50 (UACC-257) | GI50 (OVCAR-5) | GI50 (RXF 393) | GI50 (CAKI-1) | GI50 (UACC-62) | GI50 (HCC 2998) | GI50 (A498) | GI50 (LXFL 529) | GI50 (CCRF-CEM) | GI50 (HT-29) | GI50 (SK-OV-3) | GI50 (SK-MEL-5) | GI50 (Malme-3M) | GI50 (COLO 205) | GI50 (SNB-75) | GI50 (SR) | GI50 (T47D) | GI50 (MDA-MB-231)
1 | COC(=O)C(=O)C(C(=O)C(=O)Nc1cccc(C(C)=O)c1)c1nc2ccccc2nc1O (stereo unspecified) | > 100 µM (inactive) | > 100 µM (inactive) | > 100 µM (inactive) | > 100 µM (inactive) | > 100 µM (inactive) | > 100 µM (inactive) | > 100 µM (inactive) | > 100 µM (inactive) | > 100 µM (inactive) | > 100 µM (inactive) | > 100 µM (inactive) | > 100 µM (inactive) | > 100 µM (inactive) | > 100 µM (inactive) | > 100 µM (inactive) | > 100 µM (inactive) | > 100 µM (inactive) |  |  | 
2 | CCOC(=O)c1cccc(NC(=O)CBr)c1 | 1.39 µM (inactive) | 0.0904 µM (active) | 1.82 µM (inactive) | 1.75 µM (inactive) | 1.72 µM (inactive) | 0.618 µM (active) | 1.42 µM (inactive) | 2.3 µM (inactive) | 3.43 µM (inactive) |  | 0.0618 µM (active) | 1.69 µM (inactive) | 1.85 µM (inactive) | 1.41 µM (inactive) | 1.91 µM (inactive) | 1.72 µM (inactive) | 1.74 µM (inactive) | 0.206 µM (active) | 1.7 µM (inactive) | 1.82 µM (inactive)
3 | N#CC(C(=O)CCC(=O)Nc1ccc(Cl)cc1)c1ccc(Cl)cc1 (stereo unspecified) | > 100 µM (inactive) | 78.5 µM (inactive) | > 100 µM (inactive) | > 100 µM (inactive) |  | 92.5 µM (inactive) | 10.7 µM (inactive) | > 100 µM (inactive) | > 100 µM (inactive) | 9.33 µM (inactive) | > 100 µM (inactive) | > 100 µM (inactive) | > 100 µM (inactive) | > 100 µM (inactive) | > 100 µM (inactive) | > 100 µM (inactive) |  |  |  | 
4 | N#CC1C(=O)SC2c3ccccc3C(=O)c3ccccc3C12 (stereo unspecified) | > 10 µM (inactive) | > 10 µM (inactive) | > 10 µM (inactive) | > 10 µM (inactive) | > 10 µM (inactive) | > 10 µM (inactive) | > 10 µM (inactive) | > 10 µM (inactive) | > 10 µM (inactive) |  | > 10 µM (inactive) | > 10 µM (inactive) | > 10 µM (inactive) | > 10 µM (inactive) | > 10 µM (inactive) | > 10 µM (inactive) | 3.26 µM (inactive) | > 10 µM (inactive) | > 10 µM (inactive) | > 10 µM (inactive)
5 | C[C@@H](NS(=O)(=O)c1ccc(NC(=O)c2ccccc2)cc1)C(=O)O | > 100 µM (inactive) | > 100 µM (inactive) | > 100 µM (inactive) | > 100 µM (inactive) | > 100 µM (inactive) | > 100 µM (inactive) | > 100 µM (inactive) | > 100 µM (inactive) | > 100 µM (inactive) | > 100 µM (inactive) | > 100 µM (inactive) | > 100 µM (inactive) | > 100 µM (inactive) | > 100 µM (inactive) | > 100 µM (inactive) | > 100 µM (inactive) | > 100 µM (inactive) |  |  | 
6 | COc1ccc(C(OCC2OC(n3cc(C)c(=O)[nH]c3=O)CC2n2cc(Cn3cc(Br)c(=O)[nH]c3=O)nn2)(c2ccccc2)c2ccccc2)cc1 (stereo unspecified) | > 100 µM (inactive) | > 100 µM (inactive) | > 100 µM (inactive) | > 100 µM (inactive) | > 100 µM (inactive) | > 100 µM (inactive) | > 100 µM (inactive) | > 100 µM (inactive) | > 100 µM (inactive) |  | 2.53 µM (inactive) | > 100 µM (inactive) | > 100 µM (inactive) | > 100 µM (inactive) | > 100 µM (inactive) | > 100 µM (inactive) | > 100 µM (inactive) | > 100 µM (inactive) | > 100 µM (inactive) | > 100 µM (inactive)
7 | COc1cc(/C=C(\C)[N+](=O)[O-])cc(OC)c1 | 17.8 µM (inactive) | 3.08 µM (inactive) | 15.5 µM (inactive) | 20.1 µM (inactive) | 7.48 µM (inactive) | 14.5 µM (inactive) | 14.6 µM (inactive) | 25.1 µM (inactive) | 8.05 µM (inactive) |  | 2.4 µM (inactive) | 20 µM (inactive) | > 100 µM (inactive) | 16 µM (inactive) | 14.8 µM (inactive) | 8.05 µM (inactive) | 16.7 µM (inactive) | 3.01 µM (inactive) | 6.47 µM (inactive) | 16.7 µM (inactive)
8 | CN(C(=O)C12C3C4C1C1C2C3C41C(=O)C(C)(C)C)C(C)(C)C (stereo unspecified) | > 100 µM (inactive) | > 100 µM (inactive) | > 100 µM (inactive) | > 100 µM (inactive) |  | > 100 µM (inactive) | > 100 µM (inactive) | > 100 µM (inactive) | > 100 µM (inactive) | > 100 µM (inactive) | > 100 µM (inactive) | > 100 µM (inactive) | > 100 µM (inactive) | > 100 µM (inactive) | > 100 µM (inactive) | > 100 µM (inactive) | 76 µM (inactive) |  |  | 
9 | O=C(O)c1ccc(Nc2nc3ccccc3nc2-c2cccs2)cc1 | > 100 µM (inactive) | 35.1 µM (inactive) | > 100 µM (inactive) | > 100 µM (inactive) | 39.4 µM (inactive) | 63.5 µM (inactive) | 65.5 µM (inactive) | > 100 µM (inactive) | 47 µM (inactive) |  | > 100 µM (inactive) | 66.4 µM (inactive) | > 100 µM (inactive) | > 100 µM (inactive) | 60.3 µM (inactive) | > 100 µM (inactive) | 66.1 µM (inactive) | 65.9 µM (inactive) | 47 µM (inactive) | > 100 µM (inactive)
10 | COc1cc2cc3c4c(cc(OC)c(OC)c4c2cc1OC)CCN3 | 27.2 µM (inactive) | 28.6 µM (inactive) | 58.6 µM (inactive) |  | 25.1 µM (inactive) | 67.1 µM (inactive) | 5.61 µM (inactive) | 72.8 µM (inactive) |  | 58.6 µM (inactive) | 26.5 µM (inactive) | 32.9 µM (inactive) | > 100 µM (inactive) | 23.8 µM (inactive) | 44.5 µM (inactive) | 22.6 µM (inactive) | 44 µM (inactive) |  |  | 
11 | CN(C)C(=S)OC(Cn1cncn1)c1ccc(Cl)cc1Cl (stereo unspecified) | > 100 µM (inactive) | > 100 µM (inactive) | > 100 µM (inactive) | > 100 µM (inactive) | > 100 µM (inactive) | > 100 µM (inactive) | > 100 µM (inactive) | > 100 µM (inactive) | > 100 µM (inactive) | > 100 µM (inactive) |  | > 100 µM (inactive) | > 100 µM (inactive) | 96.4 µM (inactive) | > 100 µM (inactive) | > 100 µM (inactive) | > 100 µM (inactive) |  |  | 
12 | CC#CC(=O)Nc1ccccc1CC(c1c[nH]c2ccccc12)c1c[nH]c2ccccc12 | 18.9 µM (inactive) | 15.2 µM (inactive) | 21.5 µM (inactive) |  | 7.13 µM (inactive) | 20.6 µM (inactive) | 13.3 µM (inactive) | 18.3 µM (inactive) |  | 15.1 µM (inactive) | 11.3 µM (inactive) | 16.2 µM (inactive) | 18.8 µM (inactive) | 14.2 µM (inactive) | 16.6 µM (inactive) | 15.5 µM (inactive) | 5.51 µM (inactive) |  |  | 
13 | O=C(O)C[C@@H](Cl)[C@H](NC(=O)OCc1ccccc1)C(=O)O | > 100 µM (inactive) | > 100 µM (inactive) | > 100 µM (inactive) | > 100 µM (inactive) | > 100 µM (inactive) | > 100 µM (inactive) | > 100 µM (inactive) | > 100 µM (inactive) | > 100 µM (inactive) | > 100 µM (inactive) | > 100 µM (inactive) | > 100 µM (inactive) | > 100 µM (inactive) | > 100 µM (inactive) | > 100 µM (inactive) | > 100 µM (inactive) | > 100 µM (inactive) |  |  | 
14 | CC(C)C(NC(=O)OCC1c2ccccc2-c2ccccc21)C(=O)NC(CCC(=O)OC(C)(C)C)C(=O)OC(C)(C)C (stereo unspecified) (Fmoc-Val-Glu(OtBu)-OtBu; configuration not given here) | > 100 µM (inactive) | 8.38 µM (inactive) | > 100 µM (inactive) | > 100 µM (inactive) | > 20 µM (inactive) | > 100 µM (inactive) | > 76.9 µM (inactive) | > 100 µM (inactive) | 58.5 µM (inactive) |  | > 100 µM (inactive) | > 100 µM (inactive) | > 100 µM (inactive) | 7.69 µM (inactive) | > 100 µM (inactive) | > 31.6 µM (inactive) | > 46.9 µM (inactive) | 3.29 µM (inactive) | 8.57 µM (inactive) | 19.3 µM (inactive)
15 | C[C@@H](CN1CC(=O)NC(=O)C1)N1CC(=O)NC(=O)C1 [DEXRAZOXANE] | 224 µM (inactive) | 236 µM (inactive) | 492 µM (inactive) | 372 µM (inactive) | 272 µM (inactive) | 90.6 µM (inactive) | 147 µM (inactive) | 473 µM (inactive) | 221 µM (inactive) |  | 21.4 µM (inactive) | 110 µM (inactive) | 227 µM (inactive) | 174 µM (inactive) | 165 µM (inactive) | 12.5 µM (inactive) | 318 µM (inactive) | 93.1 µM (inactive) | 109 µM (inactive) | 168 µM (inactive)
